Patent US9474790B2, “Stable, protracted GLP-1/glucagon receptor co-agonists for medical use” (Novo Nordisk A/S, priority 2013, dated 2016)
Numbered stars: 1 amine (or outer) side, 2 acyl side, 3 side chain; on linkers, the order of the positions; unused ones are H or OH. Bridge positions count the residues as written; N and C are the ends. Square brackets hold non-standard residues; d marks the D form. Side chains are listed from the residue outwards. Peptide text beside a SMILES is read from it. I, II: the chains in the order shown. * marks the point of attachment. C18 diacid = O=C(O)CCCCCCCCCCCCCCCCC(=O)*; γGlu = O=C(O)[C@H](CCC(=O)[*:2])N[*:1]; Ac4c = NC1(C(=O)O)CCC1; AEEA = NCCOCCOCC(=O)O; Aib = CC(C)(N)C(=O)O

Key:
[1] = target: T1, human GLP-1 receptor (Homo sapiens, UniProt P43220); assay: GLP-1 receptor potency, CRE luciferase reporter gene assay in BHK cells; type: cell-based; details: BHK cells expressing human GLP-1 receptor, read-out: EC50 GLP-1R
T1 construct: expressed in transfected cells; host or cells: BHK cells (parent BHKTS13), clone FCW467-12A/KZ10-1, with CRE luciferase
Outline: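 BHK cells stably expressing human GLP-1 receptor with CRE-luciferase reporter, 5×10EE3 cells/well in phenol red-free DMEM with 10 mM Hepes, 2% ovalbumin, 0.2% Pluronic F-68. Compounds at final 1×10EE-6 to 1×10EE-13 M, 3 h at 37° C; steadylite luminescence; EC50 by four-parameter fit, in pM.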

[2] = Chemical stability assessment by RP-UPLC; type: physicochemical; details: 333 μM, 8 mM phosphate buffer pH 7.3, 37° C. vs 5° C.
Outline: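 Purity loss = (purity after 14 days at 5° C. minus that at 37° C.) relative to the 5° C. value, purity being main-peak area % by RP-UPLC with UV at 215 nm. Samples were 333 μM in 8 mM phosphate, pH 7.3; gradient adjusted for outlying retention times.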

T1 sequence (P43220 24-463): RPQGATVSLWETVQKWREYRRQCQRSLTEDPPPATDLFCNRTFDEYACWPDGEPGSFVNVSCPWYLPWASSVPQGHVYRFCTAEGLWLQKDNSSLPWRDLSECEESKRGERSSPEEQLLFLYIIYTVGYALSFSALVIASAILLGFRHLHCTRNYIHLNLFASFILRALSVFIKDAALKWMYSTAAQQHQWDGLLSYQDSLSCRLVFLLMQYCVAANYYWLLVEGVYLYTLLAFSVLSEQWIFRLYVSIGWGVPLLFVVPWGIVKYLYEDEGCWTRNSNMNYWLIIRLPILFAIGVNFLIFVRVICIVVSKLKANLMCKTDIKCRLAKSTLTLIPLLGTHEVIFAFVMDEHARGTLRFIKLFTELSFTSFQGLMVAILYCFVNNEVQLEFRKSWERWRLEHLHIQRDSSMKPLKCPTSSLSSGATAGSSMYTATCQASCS

SMILES	EC50 [1] [pM]	Purity loss; 14 days at 37° C. [2] [%]
CC(C)C[C@H](NC(=O)[C@H](Cc1ccc(O)cc1)NC(=O)[C@H](CCCCN)NC(=O)[C@H](CO)NC(=O)[C@H](CC(C)C)NC(=O)[C@H](CC(=O)O)NC(=O)[C@H](CO)NC(=O)[C@@H](NC(=O)[C@H](Cc1ccccc1)NC(=O)[C@@H](NC(=O)CNC(=O)[C@H](CCC(N)=O)NC(=O)C1(NC(=O)[C@@H](N)Cc2c[nH]cn2)CCC1)[C@@H](C)O)[C@@H](C)O)C(=O)N[C@@H](CCC(=O)O)C(=O)N[C@@H](CO)C(=O)N[C@@H](CCCCN)C(=O)N[C@@H](CCCNC(=N)N)C(=O)N[C@@H](C)C(=O)N[C@@H](CCCNC(=N)N)C(=O)N[C@@H](CCC(=O)O)C(=O)N[C@@H](Cc1ccccc1)C(=O)N[C@H](C(=O)N[C@@H](CCC(N)=O)C(=O)N[C@@H](Cc1c[nH]c2ccccc12)C(=O)N[C@@H](CC(C)C)C(=O)N[C@@H](CC(C)C)C(=O)N[C@@H](CCCCNC(=O)CNC(=O)[C@H](CO)NC(=O)[C@H](CCC(=O)O)NC(=O)CNC(=O)[C@H](CO)NC(=O)CC[C@H](NC(=O)CC[C@H](NC(=O)CCCCCCCCCCCCCCCCC(=O)O)C(=O)O)C(=O)O)C(=O)N[C@H](C(N)=O)[C@@H](C)O)C(C)C [Example 36, N^ε28-[2-[[(2S)-2-[[(2S)-4-carboxy-2-[[2-[[(2S)-2-[[(4S)-4-carboxy-4-[[(4S)-4-carboxy-4-(17-carboxyheptadecanoylamino)butanoyl]amino]butanoyl]amino]-3-hydroxypropanoyl]amino]acetyl]amino]butanoyl]amino]-3-hydroxypropanoyl]amino]acetyl]-[Acb2,Leu10,Glu15,Lys17, Arg20,Glu21,Leu27,Lys28]-Glucagon amide] (I: H-H[Ac4c]QGTFTSDLSKYLESKRAREFVQWLLKT-NH2 / II: {C18 diacid-γGlu-γGlu}-SGESG; amide I:28-II:C; N-terminus assumed)	2	2
CC(C)C[C@H](NC(=O)[C@H](Cc1ccc(O)cc1)NC(=O)[C@H](CCCCN)NC(=O)[C@H](CO)NC(=O)[C@H](CC(C)C)NC(=O)[C@H](CC(=O)O)NC(=O)[C@H](CO)NC(=O)[C@@H](NC(=O)[C@H](Cc1ccccc1)NC(=O)[C@@H](NC(=O)CNC(=O)[C@H](CCC(N)=O)NC(=O)C(C)(C)NC(=O)[C@@H](N)Cc1c[nH]cn1)[C@@H](C)O)[C@@H](C)O)C(=O)N[C@@H](CC(=O)O)C(=O)N[C@@H](C)C(=O)N[C@@H](CCCNC(=N)N)C(=O)N[C@@H](CCCNC(=N)N)C(=O)N[C@@H](C)C(=O)N[C@@H](CCCNC(=N)N)C(=O)N[C@@H](CCC(=O)O)C(=O)N[C@@H](Cc1ccccc1)C(=O)N[C@H](C(=O)N[C@@H](CCC(N)=O)C(=O)N[C@@H](Cc1c[nH]c2ccccc12)C(=O)N[C@@H](CC(C)C)C(=O)N[C@@H](CC(C)C)C(=O)N[C@@H](CC(N)=O)C(=O)N[C@@H](CCCCNC(=O)CC[C@H](NC(=O)CC[C@H](NC(=O)COCCOCCNC(=O)CC[C@H](NC(=O)CCCCCCCCCCCCCCCCC(=O)O)C(=O)O)C(=O)O)C(=O)O)C(N)=O)C(C)C [Example 39, N^ε29-[(4S)-4-carboxy-4-[[(4S)-4-carboxy-4-[[2-[2-[2-[[(4S)-4-carboxy-4-(17-carboxyheptadecanoylamino)butanoyl]amino]ethoxy]ethoxy]acetyl]amino]butanoyl]amino]butanoyl]-[Aib2,Leu10,Ala16,Arg20,Glu21,Leu27,Lys29]-Glucagon amide] (H-H[Aib]QGTFTSDLSKYLDARRAREFVQWLLNK([γGlu-γGlu-AEEA-γGlu-C18 diacid])-NH2; N-terminus assumed)	4	3
CC(C)C[C@H](NC(=O)[C@H](CC(C)C)NC(=O)[C@H](Cc1c[nH]c2ccccc12)NC(=O)[C@H](CCC(N)=O)NC(=O)[C@@H](NC(=O)[C@H](Cc1ccccc1)NC(=O)[C@H](CCC(=O)O)NC(=O)[C@H](CCCNC(=N)N)NC(=O)[C@H](C)NC(=O)[C@H](CCCNC(=N)N)NC(=O)[C@H](CCCNC(=N)N)NC(=O)[C@H](CO)NC(=O)[C@H](CCC(=O)O)NC(=O)[C@H](CC(C)C)NC(=O)[C@H](Cc1ccc(O)cc1)NC(=O)[C@H](CCCCN)NC(=O)[C@H](CO)NC(=O)[C@H](CC(C)C)NC(=O)[C@H](CC(=O)O)NC(=O)[C@H](CO)NC(=O)[C@@H](NC(=O)[C@H](Cc1ccccc1)NC(=O)[C@@H](NC(=O)CNC(=O)[C@H](CCC(N)=O)NC(=O)C(C)(C)NC(=O)[C@@H](N)Cc1c[nH]cn1)[C@@H](C)O)[C@@H](C)O)C(C)C)C(=O)N[C@@H](CC(N)=O)C(=O)N[C@@H](CCCCNC(=O)CC[C@H](NC(=O)CC[C@H](NC(=O)COCCOCCNC(=O)CC[C@H](NC(=O)CCCCCCCCCCCCCCCCC(=O)O)C(=O)O)C(=O)O)C(=O)O)C(N)=O [Example 40, N^ε29-[(4S)-4-carboxy-4-[[(4S)-4-carboxy-4-[[2-[2-[2-[[(4S)-4-carboxy-4-(17-carboxyheptadecanoylamino)butanoyl]amino]ethoxy]ethoxy]acetyl]amino]butanoyl]amino]butanoyl]-[Aib2,Leu10,Glu15,Arg20,Glu21,Leu27,Lys29]-Glucagon amide] (H-H[Aib]QGTFTSDLSKYLESRRAREFVQWLLNK([γGlu-γGlu-AEEA-γGlu-C18 diacid])-NH2; N-terminus assumed)	4	2
CC(C)C[C@H](NC(=O)[C@H](Cc1ccc(O)cc1)NC(=O)[C@H](CCCCN)NC(=O)[C@H](CO)NC(=O)[C@H](CC(C)C)NC(=O)[C@H](CC(=O)O)NC(=O)[C@H](CO)NC(=O)[C@@H](NC(=O)[C@H](Cc1ccccc1)NC(=O)[C@@H](NC(=O)CNC(=O)[C@H](CCC(N)=O)NC(=O)C(C)(C)NC(=O)[C@@H](N)Cc1c[nH]cn1)[C@@H](C)O)[C@@H](C)O)C(=O)N[C@@H](CCC(=O)O)C(=O)N[C@@H](CO)C(=O)N[C@@H](CCCNC(=N)N)C(=O)N[C@@H](CCCNC(=N)N)C(=O)N[C@@H](C)C(=O)N[C@@H](CCCNC(=N)N)C(=O)N[C@@H](CCC(=O)O)C(=O)N[C@@H](Cc1ccccc1)C(=O)N[C@H](C(=O)N[C@@H](CCC(N)=O)C(=O)N[C@@H](Cc1c[nH]c2ccccc12)C(=O)N[C@@H](CC(C)C)C(=O)N[C@@H](CC(C)C)C(=O)N[C@@H](CCCCNC(=O)CC[C@H](NC(=O)CC[C@H](NC(=O)CC[C@H](NC(=O)CCCCCCCCCCCCCCCCC(=O)O)C(=O)O)C(=O)O)C(=O)O)C(=O)N[C@H](C(N)=O)[C@@H](C)O)C(C)C [Example 41, N^ε28-[(4S)-4-carboxy-4-[[(4S)-4-carboxy-4-[[(4S)-4-carboxy-4-(17-carboxyheptadecanoylamino)butanoyl]amino]butanoyl]amino]butanoyl]-[Aib2,Leu10,Glu15, Arg20,Glu21,Leu27,Lys28]-Glucagon amide] (H-H[Aib]QGTFTSDLSKYLESRRAREFVQWLLK([γGlu-γGlu-γGlu-C18 diacid])T-NH2; N-terminus assumed)	7	1
